According to ChEMBL document CHEMBL3044875, “Synthesis and antimicrobial activity of some bisoctahydroxanthene-1,8-dione derivatives” (2011):
The source made the active and inactive calls. The calls are words filed in the database; no cut-off is given here.

Experiments:
[1] = system: Staphylococcus epidermidis; test: Antibacterial activity against Staphylococcus epidermidis ATCC 12228 at 140 ug/disk after 24 hr by disk diffusion method; assay type: functional
Staphylococcus aureus [2] = test: Antibacterial activity against Staphylococcus aureus ATCC 25923 at 20 ug/disc after 24 hr by disk diffusion method; assay type: functional
Pseudomonas aeruginosa [3] = test: Antibacterial activity against Pseudomonas aeruginosa ATCC 27853 at 140 ug/disk after 24 hr by disk-diffusion method; assay type: functional, organism-based
Rhodotorula mucilaginosa [4] = test: Antifungal activity against Rhodotorula mucilaginosa at 20 ug/disk after 48 hr by disk diffusion method; assay type: functional
Escherichia coli [5] = test: Antibacterial activity against Escherichia coli ATCC 25922 at 40 ug/disk after 24 hr by disk-diffusion method; assay type: functional
Candida albicans [6] = test: Antifungal activity against Candida albicans ATCC 10231 at 40 ug/disk after 48 hr by disk-diffusion method; assay type: functional; details: ATCC 10231, 48 h, read-out: DIZ
Candida albicans [7] = test: Antifungal activity against Candida albicans ATCC 10231 at 140 ug/disk after 48 hr by disk-diffusion method; assay type: functional; details: ATCC 10231, 48 h, read-out: DIZ
Bacillus cereus [8] = test: Antibacterial activity against Bacillus cereus NRRL 3711 at 140 ug/disk after 24 hr by disk diffusion method; assay type: functional; details: NRRL 3711, 24 h, read-out: DIZ
Candida albicans [9] = test: Antifungal activity against Candida albicans ATCC 10231 at 20 ug/disk after 48 hr by disk-diffusion method; assay type: functional; details: ATCC 10231, 48 h, read-out: DIZ
Pseudomonas aeruginosa [10] = test: Antibacterial activity against Pseudomonas aeruginosa ATCC 27853 at 40 ug/disk after 24 hr by disk-diffusion method; assay type: functional, organism-based
Pseudomonas aeruginosa [11] = test: Antibacterial activity against Pseudomonas aeruginosa ATCC 27853 at 20 ug/disk after 24 hr by disk-diffusion method; assay type: functional, organism-based
Bacillus cereus [12] = test: Antibacterial activity against Bacillus cereus NRRL 3711 at 20 ug/disk after 24 hr by disk diffusion method; assay type: functional; details: NRRL 3711, 24 h, read-out: DIZ
Staphylococcus aureus [13] = test: Antibacterial activity against Staphylococcus aureus ATCC 25923 at 140 ug/disc after 24 hr by disk diffusion method; assay type: functional
Aspergillus niger [14] = test: Antifungal activity against Aspergillus niger ATCC 10949 at 140 ug/disk after 72 hr by disk diffusion method; assay type: functional
[15] = system: Staphylococcus epidermidis; test: Antibacterial activity against Staphylococcus epidermidis ATCC 12228 at 20 ug/disk after 24 hr by disk diffusion method; assay type: functional, organism-based
Rhodotorula mucilaginosa [16] = test: Antifungal activity against Rhodotorula mucilaginosa at 40 ug/disk after 48 hr by disk diffusion method; assay type: functional
Nocardia [17] = test: Antibacterial activity against Nocardia canis at 140 ug/disk after 24 hr by disk diffusion method; assay type: functional
Proteus vulgaris [18] = test: Antibacterial activity against Proteus vulgaris NRRL-B-123 at 20 ug/disk after 24 hr by disk diffusion method; assay type: functional, organism-based
Proteus vulgaris [19] = test: Antibacterial activity against Proteus vulgaris NRRL-B-123 at 140 ug/disk after 24 hr by disk diffusion method; assay type: functional, organism-based
Nocardia [20] = test: Antibacterial activity against Nocardia canis at 20 ug/disk after 24 hr by disk diffusion method; assay type: functional, organism-based
Aspergillus niger [21] = test: Antifungal activity against Aspergillus niger ATCC 10949 at 40 ug/disk after 72 hr by disk diffusion method; assay type: functional, organism-based
Aspergillus niger [22] = test: Antifungal activity against Aspergillus niger ATCC 10949 at 20 ug/disk after 72 hr by disk diffusion method; assay type: functional, organism-based
Rhodotorula mucilaginosa [23] = test: Antifungal activity against Rhodotorula mucilaginosa at 140 ug/disk after 48 hr by disk diffusion method; assay type: functional; details: read-out: DIZ
Nocardia [24] = test: Antibacterial activity against Nocardia canis at 40 ug/disk after 24 hr by disk diffusion method; assay type: functional
Staphylococcus aureus [25] = test: Antibacterial activity against Staphylococcus aureus ATCC 25923 at 40 ug/disc after 24 hr by disk diffusion method; assay type: functional
Proteus vulgaris [26] = test: Antibacterial activity against Proteus vulgaris NRRL-B-123 at 40 ug/disk after 24 hr by disk diffusion method; assay type: functional, organism-based
Escherichia coli [27] = test: Antibacterial activity against Escherichia coli ATCC 25922 at 20 ug/disk after 24 hr by disk-diffusion method; assay type: functional
[28] = system: Staphylococcus epidermidis; test: Antibacterial activity against Staphylococcus epidermidis ATCC 12228 at 40 ug/disk after 24 hr by disk diffusion method; assay type: functional
Bacillus cereus [29] = test: Antibacterial activity against Bacillus cereus NRRL 3711 at 40 ug/disk after 24 hr by disk diffusion method; assay type: functional; details: NRRL 3711, 24 h, read-out: DIZ
Escherichia coli [30] = test: Antibacterial activity against Escherichia coli ATCC 25922 at 140 ug/disk after 24 hr by disk-diffusion method; assay type: functional
[31] = ATCC 12228, 24 h, read-out: DIZ
[32] = ATCC 25923, 24 h, read-out: DIZ
[33] = ATCC 25922, 24 h, read-out: DIZ

SMILES | diameter of the inhibition zone (DIZ) [1] | diameter of the inhibition zone (DIZ) (Staphylococcus aureus [2]) | diameter of the inhibition zone (DIZ) (Pseudomonas aeruginosa [3]) | diameter of the inhibition zone (DIZ) (Rhodotorula mucilaginosa [4]) | zone of inhibition at 40 µg/disc (Candida albicans [6]) | zone of inhibition at 140 µg/disc (Candida albicans [7]) | zone of inhibition at 140 µg/disc (Bacillus cereus [8]) | zone of inhibition at 20 µg/disc (Candida albicans [9]) | diameter of the inhibition zone (DIZ) (Pseudomonas aeruginosa [10]) | diameter of the inhibition zone (DIZ) (Pseudomonas aeruginosa [11]) | zone of inhibition at 20 µg/disc (Bacillus cereus [12]) | diameter of the inhibition zone (DIZ) [15] | diameter of the inhibition zone (DIZ) (Proteus vulgaris [18]) | diameter of the inhibition zone (DIZ) (Proteus vulgaris [19]) | diameter of the inhibition zone (DIZ) (Nocardia [20]) | diameter of the inhibition zone (DIZ) (Aspergillus niger [21]) | diameter of the inhibition zone (DIZ) (Aspergillus niger [22]) | zone of inhibition at 140 µg/disc (Rhodotorula mucilaginosa [23]) | diameter of the inhibition zone (DIZ) (Proteus vulgaris [26]) | zone of inhibition at 40 µg/disc (Bacillus cereus [29]) | other results
O=C1CC(c2ccccc2)CC2=C1C(c1ccc(C3C4=C(CC(c5ccccc5)CC4=O)OC4=C3C(=O)CC(c3ccccc3)C4)cc1)C1=C(CC(c3ccccc3)CC1=O)O2 (stereo not given) | inactive | inactive | inactive | inactive | 8 mm | 8 mm | 10 mm | 7 mm | inactive | inactive | 8 mm | inactive | inactive | inactive | inactive | inactive | inactive | 7 mm | inactive | 10 mm | diameter of the inhibition zone (DIZ) (Escherichia coli [5]): inactive; diameter of the inhibition zone (DIZ) (Staphylococcus aureus [13]): inactive; diameter of the inhibition zone (DIZ) (Aspergillus niger [14]): inactive; diameter of the inhibition zone (DIZ) (Rhodotorula mucilaginosa [16]): inactive; diameter of the inhibition zone (DIZ) (Nocardia [17]): inactive; diameter of the inhibition zone (DIZ) (Nocardia [24]): inactive; diameter of the inhibition zone (DIZ) (Staphylococcus aureus [25]): inactive; diameter of the inhibition zone (DIZ) (Escherichia coli [27]): inactive; diameter of the inhibition zone (DIZ) [28]: inactive; diameter of the inhibition zone (DIZ) (Escherichia coli [30]): inactive
O=C1CC(c2ccccc2)CC2=C1C(c1cccc(C3C4=C(CC(c5ccccc5)CC4=O)OC4=C3C(=O)CC(c3ccccc3)C4)c1)C1=C(CC(c3ccccc3)CC1=O)O2 (stereo not given) | inactive | inactive | inactive | inactive | 8 mm | 8 mm | 12 mm | 7 mm | inactive | inactive | 8 mm | inactive | inactive | inactive | inactive | inactive | inactive | 7 mm | inactive | 11 mm | diameter of the inhibition zone (DIZ) (Escherichia coli [5]): inactive; diameter of the inhibition zone (DIZ) (Staphylococcus aureus [13]): inactive; diameter of the inhibition zone (DIZ) (Aspergillus niger [14]): inactive; diameter of the inhibition zone (DIZ) (Rhodotorula mucilaginosa [16]): inactive; diameter of the inhibition zone (DIZ) (Nocardia [17]): inactive; diameter of the inhibition zone (DIZ) (Nocardia [24]): inactive; diameter of the inhibition zone (DIZ) (Staphylococcus aureus [25]): inactive; diameter of the inhibition zone (DIZ) (Escherichia coli [27]): inactive; diameter of the inhibition zone (DIZ) [28]: inactive; diameter of the inhibition zone (DIZ) (Escherichia coli [30]): inactive
CC1(C)CCC2=C(C1=O)C(c1cccc(C3C4=C(CCC(C)(C)C4=O)OC4=C3C(=O)C(C)(C)CC4)c1)C1=C(CCC(C)(C)C1=O)O2 |  |  | inactive |  | 9 mm | 9 mm | 9 mm | 8 mm | inactive | inactive | 8 mm | inactive | inactive | inactive | inactive | inactive | inactive | 12 mm | inactive | 9 mm | zone of inhibition at 140 µg/disc [1, 31]: 10 mm; zone of inhibition at 20 µg/disc (Staphylococcus aureus [2]; [32]): 8 mm; zone of inhibition at 20 µg/disc (Rhodotorula mucilaginosa [4]; read-out: DIZ): 8 mm; zone of inhibition at 40 µg/disc (Escherichia coli [5]; [33]): 8 mm; zone of inhibition at 140 µg/disc (Staphylococcus aureus [13]; [32]): 15 mm; zone of inhibition at 140 µg/disc (Aspergillus niger [14]; ATCC 10949, 72 h, read-out: DIZ): 7 mm; zone of inhibition at 40 µg/disc (Rhodotorula mucilaginosa [16]; read-out: DIZ): 9 mm; zone of inhibition at 140 µg/disc (Nocardia [17]; read-out: DIZ): 8 mm; zone of inhibition at 40 µg/disc (Nocardia [24]; read-out: DIZ): 7 mm; zone of inhibition at 40 µg/disc (Staphylococcus aureus [25]; [32]): 10 mm; zone of inhibition at 20 µg/disc (Escherichia coli [27]; [33]): 7 mm; zone of inhibition at 40 µg/disc [28, 31]: 8 mm; zone of inhibition at 140 µg/disc (Escherichia coli [30]; [33]): 9 mm
